biological target: T1, MB-COMT (Homo sapiens, UniProt P21964); experiment: COMT inhibition, esculetin fluorescence or fluorescence polarization assay (MB-COMT); type: biochemical; conditions: purified human COMT Val158 variant, membrane-bound
T1 construct: 6xHis or 10xHis (C)
T1 sequence (P21964 1-271): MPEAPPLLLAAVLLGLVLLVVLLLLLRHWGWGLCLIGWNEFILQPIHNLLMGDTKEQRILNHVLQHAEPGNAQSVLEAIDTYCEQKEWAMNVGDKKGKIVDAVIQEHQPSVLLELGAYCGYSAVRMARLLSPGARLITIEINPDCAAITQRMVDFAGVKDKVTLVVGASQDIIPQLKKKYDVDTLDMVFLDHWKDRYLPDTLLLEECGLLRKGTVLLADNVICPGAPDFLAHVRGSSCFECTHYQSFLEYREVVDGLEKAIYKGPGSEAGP
Text: The activity of the compounds in accordance with the present invention as COMT inhibitors may be readily determined without undue experimentation using a fluorescence or fluorescence polarization (FP) methodology that is well known in the art (Kurkela M et al., Anal Biochem (331) 2004, 198-200 and Graves, T L et al., Anal Biochem (373) 2008, 296-306).
The fluorescence assay was based on methylation of a substrate (6,7-dihydroxycoumarin or ‘esculetin’) by COMT to produce a highly fluorescent product (7-hydroxy-6-methoxycoumarin or scopoletin'). […] A 10 mM compound stock in DMSO was used to prepare 10 point 3-fold dilution series and 1 uL of appropriate dilution was plated into assay wells (black 96 well round bottom polystyrene plates from Costar; catalog #3792). […] The formation of product (scopoletin) was monitored over time by fluorescence (excitation 340 nm, emission 460 nm, no lag, 100 μs integration time, 5 flashes, top read) using a Tecan Safire^2 plate reader.

Structure (SMILES) | IC50 [nM]
Cn1cc(-c2ccc3ccccc3c2)cc(O)c1=O [Compound #1, 3-hydroxy-1-methyl-5-naphthalen-2-ylpyridin-2(1H)-one] | 179
N#Cc1cccc(-c2c[nH]c(=O)c(O)c2)c1 [Compound #8, 3-(5-hydroxy-6-oxo-1,6-dihydropyridin-3-yl)benzonitrile] | 197
Cn1cc(-c2ccc(Cl)cc2Cl)cc(O)c1=O [Example 1, 5-(2,4-Dichloro-phenyl)-3-hydroxy-1-methyl-1H-pyridin-2-one] | 392

Compounds with a lower IC50, results first:

IC50 [nM] | Structure (SMILES)
31 | O=c1[nH]cc(-c2ccc(Cl)c(C(F)(F)F)c2)cc1O [Compound #2, 5-[4-chloro-3-(trifluoromethyl)-phenyl]-3-hydroxypyridin-2(1H)-one]
118 | Cn1cc(-c2cccc(-c3ccccc3)c2)cc(O)c1=O [Example 4, 5-Biphenyl-3-yl-3-hydroxy-1-methylpyridin-2(1H)-one]

From US9309199B2, “Inhibitors of catechol O-methyl transferase and their use in the treatment of psychotic disorders” (Merck Sharp & Dohme Corp., priority 2010, dated 2016)
